Data reported in patent US20200085789A1, “USE OF A PROTEASOME INHIBITOR FOR THE TREATMENT OF CENTRAL NERVOUS SYSTEM (CNS) CANCERS” (Celgene International II Sàrl, priority 2017, published 2020).

How the values were obtained:
[1] = system: WHO Grade IV malignant glioma; assay: Progression free survival (PFS) and overall survival (OS), MRZ ± BEV in recurrent grade IV malignant glioma patients; format: in vivo, human
Description: Tumor response was measured every other cycle by RANO criteria.
The drugs were infused on 28-Day Cycles. Tumor response is assessed every other cycle by RANO criteria.
Tumor response, including PD activity, progression-free survival (PFS), and overall survival (OS) will be assessed. Tumor response will be assessed by the Investigators using RANO 2010 criteria. […] Endpoints of response based on tumor assessments will be calculated for subjects who received at least 3 doses of MRZ and had at least 1 post-dose tumor evaluation.
Tumor response including PD, progression-free survival (PFS), and overall survival (OS) will be assessed by the Investigators using RANO 2010 criteria.

[2] = system: human glioblastoma (GBM) cell lines; conditions: either of two GBM lines; cited from earlier work

C[C@@]12OC(=O)[C@]1([C@@H](O)[C@@H]1C=CCCC1)NC(=O)[C@@H]2CCCl [MRZ, marizomib]
PFS Median ([1]; All Patients): 1.8 | 6 mo Overall Survival ([1]; All Pts): 64% | 9 mo Overall Survival ([1]; All Pts): 64% | 6 mo Overall Survival ([1]; Methylated MGMT Promoter): 83% | 9 mo Overall Survival ([1]; Methylated MGMT Promoter): 83% | PFS Median ([1]; Methylated MGMT Promoter): 1.7 | OS 6 mo ([1]; Monotherapy, Methylated (7)): 83% | OS 9 mo ([1]; Monotherapy, Methylated (7)): 83% | OS Median ([1]; Monotherapy, Methylated (7)): Undefined | PFS 3 mo ([1]; Monotherapy, Methylated (7)): 40% | PFS Median ([1]; Monotherapy, Methylated (7)): 1.7 months | OS 6 mo ([1]; Monotherapy, Unmethylated (18)): 65% | OS 9 mo ([1]; Monotherapy, Unmethylated (18)): 65% | OS Median ([1]; Monotherapy, Unmethylated (18)): Undefined | PFS 3 mo ([1]; Monotherapy, Unmethylated (18)): 20% | PFS Median ([1]; Monotherapy, Unmethylated (18)): 1.9 months | median overall survival ([1]; Part II monotherapy, 16 events, median follow-up 9.2 months): 11.4 months | OS 6 mo % ([1]; Part II, N = 30, 14 censored): 59% | OS 9 mo % ([1]; Part II, N = 30, 14 censored): 54% | OS 12 mo % ([1]; Part II, N = 30, 14 censored): 17% | 6 mo Overall Survival ([1]; Unmethylated MGMT Promoter): 65% | 9 mo Overall Survival ([1]; Unmethylated MGMT Promoter): 65% | PFS Median ([1]; Unmethylated MGMT Promoter): 1.9 | decrease of matrix invasion [2]: approximately 90%
